Molecules are shown by their SMILES. The source made the active and inactive calls. The rule behind the calls is not given here.

The data set concerns CCRIS mutagenicity, Ames/micronucleus/aberration tests. Nature of the data set: CCRIS mutagenicity studies.
[1] abbreviates: Test System: AMES SALMONELLA TYPHIMURIUM, Strain/Indicator: TA98, Metabolic Activation: NONE, Method: STANDARD PLATE.
The mark [2] stands for this setting: Test System: AMES SALMONELLA TYPHIMURIUM, Strain/Indicator: TA98, Metabolic Activation: RAT, LIVER, S-9, AROCLOR 1254, Method: STANDARD PLATE.
The mark [3] stands for this setting: Test System: AMES SALMONELLA TYPHIMURIUM, Strain/Indicator: TA100, Metabolic Activation: NONE, Method: STANDARD PLATE.
[4] abbreviates: Test System: AMES SALMONELLA TYPHIMURIUM, Strain/Indicator: TA100, Metabolic Activation: RAT, LIVER, S-9, AROCLOR 1254, Method: STANDARD PLATE.
Setting [5] is: Test System: AMES SALMONELLA TYPHIMURIUM, Strain/Indicator: TA1535, Metabolic Activation: NONE, Method: STANDARD PLATE.
Where [6] appears, read: Test System: AMES SALMONELLA TYPHIMURIUM, Strain/Indicator: TA1535, Metabolic Activation: RAT, LIVER, S-9, AROCLOR 1254, Method: STANDARD PLATE.
[7] abbreviates: Test System: AMES SALMONELLA TYPHIMURIUM, Strain/Indicator: TA1537, Metabolic Activation: NONE, Method: STANDARD PLATE.
The mark [8] stands for this setting: Test System: AMES SALMONELLA TYPHIMURIUM, Strain/Indicator: TA1537, Metabolic Activation: RAT, LIVER, S-9, AROCLOR 1254, Method: STANDARD PLATE.
Setting [9] is: Test System: AMES SALMONELLA TYPHIMURIUM, Strain/Indicator: TA1538, Metabolic Activation: NONE, Method: STANDARD PLATE.
[10] abbreviates: Test System: AMES SALMONELLA TYPHIMURIUM, Strain/Indicator: TA1538, Metabolic Activation: RAT, LIVER, S-9, AROCLOR 1254, Method: STANDARD PLATE.
The mark [11] stands for this setting: Test System: AMES SALMONELLA TYPHIMURIUM, Strain/Indicator: TA97, Metabolic Activation: NONE, Method: STANDARD PLATE.
[12] abbreviates: Test System: AMES SALMONELLA TYPHIMURIUM, Strain/Indicator: TA97, Metabolic Activation: RAT, LIVER, S-9, AROCLOR 1254, Method: STANDARD PLATE.
Where [13] appears, read: Test System: AMES SALMONELLA TYPHIMURIUM, Strain/Indicator: TA102, Metabolic Activation: NONE, Method: STANDARD PLATE.
The mark [14] stands for this setting: Test System: AMES SALMONELLA TYPHIMURIUM, Strain/Indicator: TA102, Metabolic Activation: RAT, LIVER, S-9, AROCLOR 1254, Method: STANDARD PLATE.

With `Cc1c(C)c(N)c(C)c(C)c1N`, the mutagenic call reads like this: under setting [1], “inactive; negative”; under setting [2], “inactive; negative”; under setting [3], “inactive; negative”; under setting [4], “inactive; negative”; under setting [5], “inactive; negative”; under setting [6], “inactive; negative”. The mutagenic call is, setting by setting: under setting [7], “inactive; negative”; under setting [8], “inactive; negative”; under setting [9], “inactive; negative”; under setting [10], “inactive; negative”.
In the case of `Clc1cccc(C2CO2)c1` (stereo not given), the mutagenic call (Test System: E. COLI, Strain/Indicator: WP2 UVRA, Metabolic Activation: NONE, Method: STANDARD PLATE) was “active; positive”.
Regarding `O=C(/C=C/c1ccc(O)cc1)c1ccccc1`, the mutagenic call runs as follows: under setting [1], “inactive; negative”; under setting [2], “inactive; negative”; under setting [3], “inactive; negative”; under setting [4], “inactive; negative”.
On to `COc1ccc(/C(=C/C(=O)N2CCOCC2)c2ccc(F)cc2)cc1OC`, for which the mutagenic call reads like this: (End Point: IN VITRO CHROMOSOMAL ABERRATIONS, Test System: CHINESE HAMSTER LUNG (CHL) CELLS, Metabolic Activation: NONE) “inactive; negative”; (End Point: IN VITRO CHROMOSOMAL ABERRATIONS, Test System: CHINESE HAMSTER LUNG (CHL) CELLS, Metabolic Activation: S-9) “active; positive (structural changes)”.
Regarding `CCCCc1oc2ccccc2c1C(=O)c1cc(I)c(OCCN(CC)CC)c(I)c1`, the mutagenic call by setting is: (End Point: In vivo chromosomal aberrations, Test System: Bone marrow cells, Species: Rat, Strain/Sex: SHR (spontaneously hypertensive)/Female, Route: Oral) “inactive; negative”; (End Point: In vivo chromosomal aberrations, Test System: Bone marrow cells, Species: Rat, Strain/Sex: Wistar-Kyoto (WKY)/Female, Route: Oral) “active; positive”.
For `Cc1cc(Cl)ccc1OCCCC(=O)O`, the mutagenic call is “inactive; negative” under setting [11]; “inactive; negative” under setting [12]; “inactive; negative” under setting [1]; “inactive; negative” under setting [2]; “inactive; negative” under setting [3]; “inactive; negative” under setting [4]. In addition, the mutagenic call was “inactive; negative” under setting [13] and “inactive; negative” under setting [14].
In the case of `C[Si](Cl)(Cl)Cl`, the mutagenic call runs as follows: under setting [1], “inactive; negative”; (Test System: AMES SALMONELLA TYPHIMURIUM, Strain/Indicator: TA98, Metabolic Activation: RAT LIVER S-9, AROCLOR 1254, Method: STANDARD PLATE) “inactive; negative”; under setting [3], “inactive; negative”; (Test System: AMES SALMONELLA TYPHIMURIUM, Strain/Indicator: TA100, Metabolic Activation: RAT LIVER S-9, AROCLOR 1254, Method: STANDARD PLATE) “inactive; negative”; under setting [5], “inactive; negative”; (Test System: AMES SALMONELLA TYPHIMURIUM, Strain/Indicator: TA1535, Metabolic Activation: RAT LIVER S-9, AROCLOR 1254, Method: STANDARD PLATE) “inactive; negative”. In addition, the mutagenic call by setting is: under setting [7], “inactive; negative”; (Test System: AMES SALMONELLA TYPHIMURIUM, Strain/Indicator: TA1537, Metabolic Activation: RAT LIVER S-9, AROCLOR 1254, Method: STANDARD PLATE) “inactive; negative”; under setting [9], “inactive; negative”; (Test System: AMES SALMONELLA TYPHIMURIUM, Strain/Indicator: TA1538, Metabolic Activation: RAT LIVER S-9, AROCLOR 1254, Method: STANDARD PLATE) “inactive; negative”; (Test System: E. COLI, Strain/Indicator: P3078 POLA, Metabolic Activation: NONE, Method: SPOT TEST) “inactive; negative”; (Test System: E. COLI, Strain/Indicator: P3078 POLA, Metabolic Activation: RAT LIVER S-9, AROCLOR 1254, Method: SPOT TEST) “inactive; negative”. The mutagenic call runs as follows: (Test System: E. COLI, Strain/Indicator: W3110, Metabolic Activation: NONE, Method: SPOT TEST) “inactive; negative”; (Test System: E. COLI, Strain/Indicator: W3110, Metabolic Activation: RAT LIVER S-9, AROCLOR 1254, Method: SPOT TEST) “inactive; negative”; (Test System: MOUSE LYMPHOMA, Strain/Indicator: L5178Y (TK+/TK-), Metabolic Activation: NONE, Method: SUSPENSION/PLATE) “inactive; negative”; (Test System: MOUSE LYMPHOMA, Strain/Indicator: L5178Y (TK+/TK-), Metabolic Activation: RAT, LIVER, S-9, Method: SUSPENSION/PLATE) “inactive; negative”.
In the case of `C[C@@H]1O[C@@H](O[C@H]2[C@H](O[C@H]3[C@H](O[C@H]4CC[C@@]5(C)[C@@H](CC[C@]6(C)[C@@H]5CC=C5[C@@H]7CC(C)(C)C[C@@H](O)[C@]7(C)CC[C@]56C)[C@@]4(C)CO)O[C@H](C(=O)O)[C@@H](O)[C@@H]3O)O[C@H](CO)[C@H](O)[C@@H]2O)[C@H](O)[C@H](O)[C@H]1O`, the mutagenic call is “inactive; negative” under setting [11]; “inactive; negative” under setting [12]; “inactive; negative” under setting [1]; “inactive; negative” under setting [2]; “inactive; negative” under setting [3]; “inactive; negative” under setting [4]. The mutagenic call is, setting by setting: under setting [13], “inactive; negative”; under setting [14], “inactive; negative”.
As for `CC(C)(C)N(CCO)CCO`, the mutagenic call under setting [1] is “inactive; negative”; the mutagenic call under setting [2] was “inactive; negative”; the mutagenic call under setting [3] was “inactive; negative”; the mutagenic call under setting [4] is “inactive; negative”; the mutagenic call under setting [5] was “inactive; negative”; the mutagenic call under setting [6] was “inactive; negative”. Moreover, the mutagenic call is, setting by setting: under setting [7], “inactive; negative”; under setting [8], “inactive; negative”; under setting [9], “inactive; negative”; under setting [10], “inactive; negative”; (Test System: CHINESE HAMSTER OVARY, Strain/Indicator: CHO-K1-BH4, Metabolic Activation: NONE) “inactive; negative”; (Test System: CHINESE HAMSTER OVARY, Strain/Indicator: CHO-K1-BH4, Metabolic Activation: RAT, LIVER, S-9, AROCLOR 1254) “inactive; negative”.
Regarding `O=[N+]([O-])c1ccc2ccc3cccc4cc(O)c1c2c34`, the mutagenic call was “active; positive” under setting [1] and “active; positive” under setting [2].
With `c1ccc2c(OCC3CO3)cccc2c1` (stereo not given), the mutagenic call was “active; positive” under setting [3]; “active; positive” (Test System: AMES SALMONELLA TYPHIMURIUM, Strain/Indicator: TA104, Metabolic Activation: NONE, Method: STANDARD PLATE); “active; positive” under setting [5]; “active; positive” (Test System: AMES SALMONELLA TYPHIMURIUM, Strain/Indicator: TA4001, Metabolic Activation: NONE, Method: STANDARD PLATE); “active; positive” (Test System: AMES SALMONELLA TYPHIMURIUM, Strain/Indicator: TA4006, Metabolic Activation: NONE, Method: STANDARD PLATE).

The values are drawn from PubChem BioAssay AID1259407 (Chemical Carcinogenesis Research Information System (CCRIS), 2018).
